Data set [1] deals with Staphylococcus aureus. The data set can be described thus: Antibacterial activity against methicillin resistant Staphylococcus aureus 43300 assessed as reduction in bacterial growth by CLSI protocol based method. Type of data set: functional.
Data set [2] has as its system Staphylococcus aureus. The data set can be described thus: Antibacterial activity against Staphylococcus aureus ATCC 29213 assessed as reduction in bacterial growth by CLSI protocol based method. Type of data set: functional.
The test system of data set [3] is Pseudomonas aeruginosa. The data set can be described thus: Antibacterial activity against Pseudomonas aeruginosa assessed as reduction in bacterial growth by CLSI protocol based method. Type of data set: functional.
For data set [4], the system named is Staphylococcus aureus. As to the kind of experiment: Antibacterial activity against methicillin resistant Staphylococcus aureus assessed as reduction in bacterial growth by CLSI protocol based method. The format is functional.
Data set [5] is described as follows: Induction of drug resistance in Pseudomonas aeruginosa ATCC 27853 measured after 12 passages. The format is functional.
For a further data set, the system named is Enterococcus faecalis. As to the kind of experiment: Antibacterial activity against Enterococcus faecalis assessed as reduction in bacterial growth by CLSI protocol based method. Type of data set: functional.
The subject of data set [6] is Pseudomonas aeruginosa. The data set can be described thus: Antibacterial activity against Pseudomonas aeruginosa ATCC 10104 assessed as reduction in bacterial growth by CLSI protocol based method. Type of data set: functional.
The subject of the next data set is Klebsiella pneumoniae. As to the kind of experiment: Antibacterial activity against Klebsiella pneumoniae assessed as reduction in bacterial growth by CLSI protocol based method. Type of data set: functional.
For a further data set, the system named is Escherichia coli. As to the kind of experiment: Antibacterial activity against Escherichia coli ATCC 25922 assessed as reduction in bacterial growth by CLSI protocol based method. Type of data set: functional.
For data set [7], the system named is Pseudomonas aeruginosa. As to the kind of experiment: Antibacterial activity against Pseudomonas aeruginosa ATCC 90027 assessed as reduction in bacterial growth by CLSI protocol based method. The format is functional.
The subject of data set [8] is Pseudomonas aeruginosa. The data set can be described thus: Antibacterial activity against Pseudomonas aeruginosa ATCC 27853 assessed as reduction in bacterial growth by CLSI protocol based method. The format is functional.
Data set [9] relates to Staphylococcus aureus. The data set can be described thus: Antibacterial activity against Staphylococcus aureus ATCC 25923 assessed as reduction in bacterial growth by CLSI protocol based method. The format is functional.
A further data set deals with Acinetobacter baumannii. The data set can be described thus: Antibacterial activity against Acinetobacter baumannii assessed as reduction in bacterial growth by CLSI protocol based method. Type of data set: functional.
For data set [10], the system named is Cell membrane. The data set can be described thus: Disruption of inner membrane integrity in Pseudomonas aeruginosa ATCC 27853 assessed as increase in fluorescence intensity measured after 8 hrs. The format is subcellular.
The subject of data set [11] is NCM460. The data set can be described thus: Cytotoxicity against human NCM460 cells assessed as effect on cell surface damage at 25 ug/ml measured after 24 hrs by microscope based analysis. The format is toxicity. The following applies: ncm460, 24 h, dose 25 µg/ml.
Data set [12] has as its system Cell membrane. As to the kind of experiment: Disruption of outer membrane integrity in Pseudomonas aeruginosa ATCC 27853 assessed as increase in fluorescence intensity at 4 to 8 times MIC. The settings on record: time <= 80.0 min, TDE = time-dependent effect. The format is subcellular.
In data set [13] the test system is Cell membrane. As to the kind of experiment: Disruption of inner membrane integrity in Pseudomonas aeruginosa ATCC 27853 assessed as increase in red fluorescence intensity at 8 times MIC measured after 10 to 40 mins by propidium iodide staining based analysis. Type of data set: subcellular. The settings on record: time 10-40 min.
In data set [14] the test system is NCM460. The data set can be described thus: Cytotoxicity against human NCM460 cells assessed as reduction in cell viability at 25 ug/ml measured after 24 hrs by CCK-8 method relative to control. The format is toxicity, cell-based. The settings on record: ncm460, 24 h, at 25 µg/mL. A general note: Tetrazolium dyes change colour on reduction, which living cells bring about.

The next data set has as its system Calf thymus DNA. As to the kind of experiment: Binding affinity to calf thymus DNA at upto 18 micromol/ml by fluorescence spectroscopic method. Type of data set: nucleic-acid assay. The settings on record: Bos taurus; dose <= 18.0 µmol/ml.
Data set [15] deals with Cell membrane. The data set can be described thus: Disruption of inner membrane integrity in Pseudomonas aeruginosa ATCC 27853 assessed as increase in fluorescence intensity at 4 to 8 times MIC. The format is subcellular. The settings on record: time <= 12.0 min, TDE = time-dependent effect.
Data set [16] is described as follows: Hemolytic activity in human RBC assessed as hemolysis at 256 times MIC measured after 8 hrs relative to control. The format is toxicity, cell-based, Erythrocyte. The settings on record: red blood cells (erythrocytes), read-out: Activity.
Data set [17] relates to Cell membrane. As to the kind of experiment: Disruption of outer membrane integrity in Pseudomonas aeruginosa ATCC 27853 assessed as increase in fluorescence intensity measured after 8 hrs. Type of data set: subcellular.
Data set [18] has as its system Pseudomonas aeruginosa. The data set can be described thus: Induction of drug resistance in Pseudomonas aeruginosa ATCC 27853 measured within 17 passages. The format is functional.
The test system of data set [19] is Cell membrane. The data set can be described thus: Disruption of cell membrane integrity in Pseudomonas aeruginosa ATCC 27853 assessed as increase in protein leakage by Bradford assay. The format is subcellular.
The subject of a further data set is Erythrocyte. As to the kind of experiment: Hemolytic activity against human RBC assessed as effect on cell morphology at 32 times MIC measured after 8 hrs by fluorescence microscopic analysis. The format is toxicity, cell-based.

In brackets after ≈: the same amount, converted by molar mass. Activity calls are given as the source filed them. No cut-off for these calls is given here.

Consider `CCn1cc(C(=O)O)c(=O)c2cc(F)c(N3CCNCC3)cc21` [NORFLOXACIN], for which the minimal inhibitory concentration (MIC) (in general, the lowest concentration found to suppress growth) in the data set with Staphylococcus aureus [1] is 8 µg/mL (≈ 25.1 µM); in the data set on Staphylococcus aureus [2], 2 µg/mL (≈ 6.26 µM); in the data set with Pseudomonas aeruginosa [3], 4 µg/mL (≈ 12.5 µM); in the data set with Staphylococcus aureus [4], 4 µg/mL (≈ 12.5 µM); in [5] it was 128 µg/mL (≈ 401 µM); in the data set with Enterococcus faecalis, 4 µg/mL (≈ 12.5 µM). Further, the minimal inhibitory concentration (MIC) came out at 5 µg/mL (≈ 15.7 µM) with Pseudomonas aeruginosa [6]; 4 µg/mL (≈ 12.5 µM) in the data set on Klebsiella pneumoniae; 4 µg/mL (≈ 12.5 µM) with Escherichia coli; 2 µg/mL (≈ 6.26 µM) in the data set on Pseudomonas aeruginosa [7]; 4 µg/mL (≈ 12.5 µM) in the data set on Pseudomonas aeruginosa [8]; 2 µg/mL (≈ 6.26 µM) in the data set with Staphylococcus aureus [9]. For the same compound, the minimum inhibitory concentration (MIC) in the data set with Acinetobacter baumannii was found to be 2 µg/mL (≈ 6.26 µM).
`O=C(N/N=C/c1c(O)ccc2ccc(=O)oc12)c1ccncc1`: the Activity result is “Dose-Dependent Effect” in the data set with Cell membrane [10]; “Non-Toxic” with NCM460 [11]; “Tde” in the data set with Cell membrane [12]; over 80% in the data set with NCM460 [14]; “Tde” in the data set with Cell membrane [15]; “Dose-Dependent Effect” in the data set with Cell membrane [17]. Further, the values for the Activity entry in the data set on Cell membrane [19] and in the data set on Erythrocyte were “Dose-Dependent Effect” and “Non-Toxic”, respectively. Also, the minimum inhibitory concentration (MIC) came to 1 µg/mL (≈ 3.23 µM) in the data set on Staphylococcus aureus [1]; 8 µg/mL (≈ 25.9 µM) with Staphylococcus aureus [2]; 8 µg/mL (≈ 25.9 µM) in the data set on Pseudomonas aeruginosa [3]; 4 µg/mL (≈ 12.9 µM) in the data set with Staphylococcus aureus [4]; 8 µg/mL (≈ 25.9 µM) with Enterococcus faecalis; 16 µg/mL (≈ 51.7 µM) in the data set on Pseudomonas aeruginosa [6]. The minimal inhibitory concentration (MIC) with Klebsiella pneumoniae turned out to be 2 µg/mL (≈ 6.47 µM); in the data set with Escherichia coli, 8 µg/mL (≈ 25.9 µM); with Pseudomonas aeruginosa [7], 32 µg/mL (≈ 103 µM); in the data set on Pseudomonas aeruginosa [8] it was 0.5 µg/mL (≈ 1.62 µM); in the data set on Staphylococcus aureus [9], 16 µg/mL (≈ 51.7 µM); in the data set with Acinetobacter baumannii, 1 µg/mL (≈ 3.23 µM). The outcome with Cell membrane [13], in the data set with Calf thymus DNA and in the data set with Pseudomonas aeruginosa [18] was Active. Moreover, the hemolysis at 8 h, 256 times MIC in [16] is under 4%.
On to `COC(=O)N/N=C/c1c(O)ccc2ccc(=O)oc12`, for which the minimal inhibitory concentration (MIC) in the data set with Staphylococcus aureus [1] is 512 µg/mL (≈ 1950 µM); with Staphylococcus aureus [2], 512 µg/mL (≈ 1950 µM); with Pseudomonas aeruginosa [3], 32 µg/mL (≈ 122 µM); with Staphylococcus aureus [4], 512 µg/mL (≈ 1950 µM); in the data set on Enterococcus faecalis, 256 µg/mL (≈ 976 µM); in the data set on Pseudomonas aeruginosa [6], 512 µg/mL (≈ 1950 µM). The MIC in the data set with Klebsiella pneumoniae worked out at 128 µg/mL (≈ 488 µM); in the data set with Escherichia coli, 1 µg/mL (≈ 3.81 µM); in the data set on Pseudomonas aeruginosa [7], 128 µg/mL (≈ 488 µM); with Pseudomonas aeruginosa [8] it was 256 µg/mL (≈ 976 µM); in the data set on Staphylococcus aureus [9] it was 64 µg/mL (≈ 244 µM); in the data set on Acinetobacter baumannii, 128 µg/mL (≈ 488 µM).
In the case of `N/N=C/c1c(O)ccc2ccc(=O)oc12`, the minimal inhibitory concentration (MIC) with Staphylococcus aureus [1] is 128 µg/mL (≈ 627 µM); with Staphylococcus aureus [2], 512 µg/mL (≈ 2510 µM); in the data set on Pseudomonas aeruginosa [3] it was 512 µg/mL (≈ 2510 µM); in the data set with Staphylococcus aureus [4], 128 µg/mL (≈ 627 µM); in the data set on Enterococcus faecalis, 512 µg/mL (≈ 2510 µM); in the data set on Pseudomonas aeruginosa [6], 512 µg/mL (≈ 2510 µM). The minimum inhibitory concentration (MIC) in the data set with Klebsiella pneumoniae worked out at 128 µg/mL (≈ 627 µM); in the data set on Escherichia coli, 32 µg/mL (≈ 157 µM); in the data set with Pseudomonas aeruginosa [7], 512 µg/mL (≈ 2510 µM); in the data set with Pseudomonas aeruginosa [8], 128 µg/mL (≈ 627 µM); with Staphylococcus aureus [9], 16 µg/mL (≈ 78.4 µM); with Acinetobacter baumannii it was 256 µg/mL (≈ 1250 µM).

The record behind these values is ChEMBL document CHEMBL5385944, “Hydrazyl hydroxycoumarins as new potential conquerors towards Pseudomonas aeruginosa” (Bioorg Med Chem Lett, 2024).
